The values below come from patent publication US11926580B2, “Hydropersulfide precursors” (THE JOHNS HOPKINS UNIVERSITY, priority 2018, dated 2024).

The data set in a line: Kinetics of RSSH generation by 1H NMR with NEM trapping. Format: physicochemical. The note with it: 10% D2O. The procedure: FIGS. 3a and 3b provide graphs of (a) Stacked ^1H NMR spectra showing the decomposition of precursor 4d (1 mM) with NEM (20 mM) in 10% D2O, phosphate buffer (PB), pH 7.4 at 37° C. to produce RSS-NEM adduct 5a; Precursor 4d was introduced to a solution of NEM in PB at t=0 min and following equilibration and shimming, the first 1H NMR spectrum was obtained after 6 min.; and (b) The kinetics of decomposition of 4d (circles represent the —CH3 protons (Ha) of the precursor) and formation of 5a (squares represent the diasterotopic protons (Hb) of the succinimide ring of the two product diastereomers).
Next, ^1H NMR spectroscopy was used to monitor the kinetics of RSSH generation from 4d by trapping with NEM in 10% D2O, pH 7.4 buffer containing DMSO as an internal standard at 37° C. An increase in the peak intensity attributed to one of the diasterotopic protons of the succinimide ring of the two product diastereomers (Hb, δ2.99-2.91 ppm) was observed (FIG. 3a). The other diasterotopic proton (Hc, δ3.30-3.21 ppm) overlaps with N-ethylmaleamic acid (NEMA), a product derived from NEM hydrolysis. Similarly, the intensity of two methyl group protons of precursor 4d (δ1.44 and 1.41 ppm) decreased as four methyl group protons of the two diastereomers of 5a (Ha, δ1.40, 1.37 ppm and 1.40, 1.34 ppm) increased, supporting the clean conversion of 4d to 5a. The ^1H NMR peak assignments for 5a are consistent with the RSS-NEM adduct formed during S-methoxycarbonyl penicillamine disulfide (MCPD) decomposition (Scheme 1, eq. 3) in the presence of NEM.
All starting materials were of reagent grade and used without further purification. N-acetyl-D-penicillamine, N-ethylmaleimide, N-ethylmaleamic acid, and phenylcyanamide were purchased from Sigma-Aldrich and used without further purification. Thiourea and N-substituted thioureas were purchased from Alfa Aesar and Oakwood Chemicals. Deuterated solvents (Cambridge Isotope Laboratories) were used for NMR spectroscopic analyses. NMR spectra were obtained on a 400 MHz FT-NMR spectrometer. All chemical shifts are reported in parts per million (ppm) relative to residual CHCl3 (7.26 ppm for ^1H, 77.2 ppm for ^13C), residual H2O (4.79 ppm for ^1H), residual DMSO (2.50 ppm for ^1H, 39.5 for ^13C), or residual MeOH (3.31 ppm for ^1H, 49.2 ppm for ^13C). The kinetics of RSSH generation were measured using a Varian Inova 800 MHz spectrometer. UPLC-MS analysis was carried out with a Waters Acquity/Xevo-G2 UPLC-MS system equipped with an ACQUITY UPLC BEH C18 column (2.1 mm×50 mm, 1.7 μm). The mass signals for products of hydropersulfide trapping with NEM were obtained via deconvolution using MassLynx 4.1 software. The pH measurements were performed using a Fisher Scientific Accumet AB15 pH-meter. Analytical thin layer chromatography (TLC) was performed on Sigma-Aldrich silica gel on TLC A1 foils with fluorescent indicator F254 plates. Visualization was accomplished with UV light (254 nm) or staining with KMnO4. Flash column chromatography was performed using SiliaFlash P60 (230-400 mesh) silica gel. Melting points were recorded using MEL-TEMP® capillary melting point apparatus and are uncorrected.

“And” between values parts separate entries of the source, which are not always exact repeats. Equal entries are not always repeated.

Consider `CC(=O)NC(C(=O)O)C(C)(C)SSC(=N)Nc1ccccc1.Cl` (stereo not shown) [Precursor 4d, ((1-acetamido-1-carboxy-2-methylpropan-2-yl)disulfaneyl)(phenylamino)methaniminium chloride], for which the “k, single-exponential fit of precursor decomposition and 5a formation” value (4d 1 mM, NEM 20 mM, phosphate buffer pH 7.4, 37° C.) was found to be 0.12 min⁻¹. Moreover, for the setting “NEM, pH 7.4 buffer, 37° C., read-out: half-life of precursor”, the half-life at 1 mM came out at 5.6 min. The “t1//2 (mm)” value (precursor 1 mM, NEM 20 mM, pH 7.4 phosphate buffer, 37° C.) worked out at 5.6 ± 0.3 min. Also, the “Hydropersulfide Yield (%) (RSS-NEM adduct)” value (precursor 1 mM, NEM 20 mM, pH 7.4 phosphate buffer, 37° C., based upon % precursor consumed) is 96% and 96 ± 1%.
